Values quoted from earlier work as cited in patent US3956274A, “New compound 6'-deoxy-'-substituted or unsubstituted amino-lividomycins and the production thereof” (Zaidan Hojin Biseibutsu Kagaku Kenkyu Kai, priority 1973, dated 1976).

Tested on: strains producing the phosphotransferase
Settings: in words; cited from earlier work

## NC[C@@H]1CC[C@@H](N)[C@@H](O[C@H]2[C@H](O[C@@H]3O[C@H](CO)[C@@H](O)[C@H]3O)[C@@H](O)[C@H](N)C[C@@H]2N)O1 [3', 4'-dideoxyribostamycin]
  inactivation by some strains producing the phosphotransferase: can be inactivated by some strains producing the phosphotransferase
